Laboratory results from patent US20230226002A1, “RETINAL BIOA[…] SYNTHETIC VERY-LONG-CHAIN POLYUNSATURATED FATTY ACIDS” (University of Utah Research Foundation, priority 2020, published 2023).

What was measured:
[1] = Single dose gavage bioavailability, GC-MS of serum and tissues; assay type: in vivo, WT mice (C57BL/6J); settings: single oral gavage dose of 6 mg, mice
Experimental: WT mice (C57BL/6J) mice have been used in this study for single dose gavage, repeated dose gavage and optomotry experiments. VLC-PUFA liposomes have been prepared using liposome kit (0.05%) with an addition of alpha-tocopherol (VE) (0.025%) to prevent oxidation. Three month old WT mice were gavage fed with VLC-PUFA liposomes. A dose of 6 mg/mice/day was used, half the dosage used for DHA by previous studies (Jiang, et al. (2009) The Journal of Nutritional Biochemistry 20: 735-741; Hacioglui, et al. (2007) Neurobiology of Learning and Memory 87: 159-165). The mice were gavage fed and sacrificed at time intervals (n=4/time point) of 2, 4, 8, and 24 hr to harvest the blood and other tissues. Eyes were dissected under the microscope to separate retina from RPE. One pair of retina/mouse have been used for lipid extraction as described in the procedure elsewhere. Blood was centrifuged for 5 min at 7500 rpm to separate serum from RBC. Serum, RBC, liver, retina and RPE have been used for lipid extractions and GC-MS analysis.
(§1) Serum, RBCs, orbital adipose tissue, and retina punches, were extracted using the procedure previously adopted (Liu, et al. (2013) J. Chromatogr. A 1307: 191-200). The samples and internal standards (50 μg of tridecanoic acid and 1.15 μg of hentriacontanoic acid) were added in 2 ml stainless steel vials and then homogenized with 0.7 ml silica beads and 1 ml hexane-isopropanol (3:2 v:v) by a Mini Bead Beater-16 (BioSpec Products Inc., Bartlesville, Okla., USA) and a Sonic Dismembrator Model 100 (Fisher Scientific, Pittsburgh, Pa., USA). The homogenized samples were bath sonicated for 5 min in an ice water bath. After centrifugation at 10,000 rpm for 5 min, the extracted solution supernatant was transferred to a clean vial and then dried under a stream of nitrogen. The dried film was dissolved in 200 μl hexane, and 2 ml of 4% HCl in methanol was added. The tubes were flushed with argon and incubated at 80° C. for 4 hr to form FAMEs (Liu, et al. (2013) J. Chromatogr. A 1307: 191-200) and then allowed to cool. The FAME mixture was extracted three times with 1 ml distilled water and 2 ml hexane. The hexane layers were combined and dried under nitrogen gas.
(§2) Silica gel, glass-encased, solid-phase extraction cartridges were subsequently used to clean the FAME extracts. The cartridge was activated with 6 ml of hexane before loading samples. The crude FAME extract was dissolved in 200 μl of hexane and loaded onto the activated cartridge. The cartridge was washed with 6 ml hexane, and the eluate was discarded. FAMEs were eluted from the cartridge with 5 ml hexane:ether (4:1), and the eluate was evaporated under nitrogen gas. The dry film was dissolved in 200 μl of hexane and centrifuged for 3 min at 14,000 rpm to remove particles prior to GC-MS analysis. 1 μl of sample was injected into the GC-MS instrument for LC-PUFAs analysis. For VLC-PUFAs analysis, the sample was dried with nitrogen again and re-dissolved in 20 μl of n-nonane, and 5 μl samples were injected into the GC-MS instrument.
(§3) The Thermo Trace GC-DSQ II system (ThermoFisher Scientific, Waltham, Mass., USA) consists of an automatic sample injector (AS 3000), gas chromatograph (GC), single quadrupole mass detector, and an analytical workstation. The chromatographic separation was carried out with an Rxi-5MS coated 5% diphenyl/95% dimethyl polysiloxane capillary column (30 m×0.25 mm i.d, 0.25 μm film thickness) (Restek, Bellefonte, Pa., USA). Two methods (A and B) were used for detection and quantitation of LC-PUFAs and VLC-PUFAs, respectively as previously published (Liu, et al. (2013) J. Chromatogr. A 1307: 191-200). Bovine retina VLC-PUFAs were extracted and employed as VLC-PUFA standards to establish retention times because commercial standards are not available, and identification of each VLC-PUFA in retinal samples was achieved as described in prior work (Liu, et al. (2010) J. Lipid Res. 51: 3217-3229).

[2] = Repeated dose gavage for 15 days, GC-MS of serum and tissues; assay type: in vivo, WT mice (C57BL/6J); settings: gavage 15 days
Experimental: Repeated dose gavage. VLC-PUFA liposomes were gavaged to three month old WT mice for 15 days. The mice were divided into three groups (n=4/group), Group 1 was fed with liposomes prepared with PC and alpha-tocopherol, Group 2 was fed with liposomes prepared with PC, VE, and 1 mg VLC-PUFAs and Group 3 was fed with liposomes with PC, VE and 2 mg VLC-PUFAs. Mice were sacrificed at the end of the experiment and organs were harvested, extracted for lipids and analyzed by GC-MS using the procedure mentioned elsewhere.
as §1, §2, §3

[3] = DSPC flip-flop kinetics by sum-frequency vibrational spectroscopy; assay type: physicochemical; settings: 0.1 mol % VLC-PUFA in DSPC vs pure DSPC, about 46° C.
Experimental: Planar supported lipid bilayers (PSLBs) used in this study were prepared using the Langmuir-Blodgett/Langmuir-Schaefer (LB/LS) method, the details of which are presented elsewhere (Liu and Conboy (2009) Vib. Spectrosc. 50: 106-115). Briefly, the cleaned SiO2 prisms were submerged in PBS. Afterwards, 0.1 mol % VLC-PUFA in DSPCd70 was spread over the air/water interface and allowed to thermally equilibrate for 15 minutes. Afterwards, the monolayer was compressed to 30 mN/m at a rate of 4 mm/min, and the surface pressure was allowed to stabilize for another 5 minutes. The prism was then withdrawn at a rate of 3 mm/min to deposit the LB layer. The subphase was removed, and the trough was cleaned using methanol, isopropanol, and water. […]
Following bilayer assembly, the flow-cell was flushed with PBS in D2O to eliminate any spectral interference from the 0-H bands from water. […] The flip-flop rates of DSPC were determined from the decay of methyl symmetric stretch mode (CH3 vs) for an asymmetrically prepared VLC-PUFA:DSPC membrane in which on leaflet contained dueterated DSPCd70 and DSPC. As DSPC lipid exchange between leaflets, the intensity of the CH3 vs decreases over time due to flip-flop and the rate of exchange is determined by fitting the data to ICH3(t)=Imin+Imaxe^−4kt, the results of which are presented in FIG. 2B. The half-lives of flip-flop were calculated using […]

[4] = π-A isotherms of VLC-PUFA in DSPC lipid monolayers (Langmuir trough); assay type: physicochemical
Experimental: Pressure-area (π-A) isotherms were collected using a Langmuir trough (KSV, Helsinki, Finland). PBS was used as the subphase for all isotherms. Stock solutions of pure VLC-PUFA, pure DSPC, and DSPC containing 0.1 mol %, 1 mol %, or 10 mol % VLC-PUFA were spread at the air/water interface and allowed to equilibrate for 15 minutes prior to compression to allow for solvent evaporation. The monolayers were compressed at a rate of 2 mm/min at 22±1° C. and repeated in triplicate. The averaged isotherms were smoothed using a 100-point rolling average. The MMA of mixture of VLC-PUFA in DSPC layers was calculated by the formula: MMADSPC+VLC-PUFA=MMADSPCXDSPC+MMAVLC-PUFAXVLC-PUFA, where the X is mol fraction of DSPC and VLC-PUFA in membrane.
After developing an efficient synthetic route to producing VLC-PUFAs, their previously unexplored biophysical properties were studied, including their impact on membrane packing and compressibility as well their influence on membrane dynamics, particularly lipid flip-flop. […] The changes imparted by VLC-PUFAs on lipid packing and the compression moduli of model membranes were evaluated from π-A isotherms of 32:6 n-3 in 1,2-distearoyl-sn-3-glycero-phosphocholine (DSPC) lipid monolayers (FIG. 2A). […]

WT mice (C57BL/6J) = experiment: Optomotry/Visual behavior test after repeated dose gavage; assay type: in vivo; settings: 2 mg/day for 15 days by gavage, compared to controls
Experimental: Optomotry/Visual behavior test. Repeated dose gavage fed mice were tested for visual behavior to observe the effect of VLC-PUFA on vision. Since the optomotry tests could be manipulative, all the analysts were double blinded. 3 month-old mice were employed to test spatial visual acuity using the OptoMotry system (Cerebral Mechanics, Lethbridg, AB, Canada). Briefly, individual mice were placed on a platform centered in a quad-square formed by four inward facing computer screens, and their movements were monitored by an overhead video camera. Photopic measurements were conducted under illuminance of around 165 lux. […] During the detection of spatial frequency threshold, the rotation speed and contrast were kept at 12°/s, and 100%, respectively, while the frequency was kept at 0.19 cycle/degree in the examination of contrast sensitivity. All experiments had concurrent control mice fed with placebo chow.

[5] = 1 and 2 mg/day groups vs control mice (undetectable)
[6] = both 1 and 2 mg/day groups vs 0 mg/day controls, mice

CC/C=C\C/C=C\C/C=C\C/C=C\C/C=C\C/C=C\CCCCCCCCCCCCC(=O)O [32:6 n-3, (14Z,17Z,20Z,23Z,26Z,29Z)-dotriaconta-14,17,20,23,26,29-hexaenoic acid]
32:6 n-3 level in RPE ([1]; 4-8 hr after gavage): significant increase
32:6 n-3 level in retina ([1]; 4-8 hr after gavage): significant increase
time until serum VLC-PUFAs became detectable ([1]; serum): ≤ 2 h
serum VLC-PUFA concentration course after the first detection ([1]; serum, over the next 24 hr): reached a lower steady-state concentration
VLC-PUFAs in brain ([1]; throughout the 24 hr-period): undetectable
VLC-PUFAs in liver ([1]; throughout the 24 hr-period): undetectable
VLC-PUFAs in red blood cell (RBC) membranes ([1]; throughout the 24 hr-period): undetectable
RBC VLC-PUFAs [2, 5]: significant increase
serum VLC-PUFAs [2, 5]: significant increase
VLC-PUFAs in brain ([2]; 1 and 2 mg/day, mice): no VLC-PUFAs were detectable
VLC-PUFAs in liver ([2]; 1 and 2 mg/day, mice): detectable levels of VLC-PUFAs only in the 2 mg/day group
increase of VLC-PUFA levels in RPE [2, 6]: 7 fold
increase of VLC-PUFA levels in retina [2, 6]: 2 fold
toxic symptoms or behavioral changes ([2]; treatment groups compared to the control group, mice): toxic symptoms or behavioral changes were observed
increase of the DSPC flip-flop rate [3]: 4 fold
elasticity of DSPC membranes ([4]; 0.1 mol % VLC-PUFA in DSPC membranes): high elasticity
shift of π-A isotherm / mean molecular area (MMA) of the lipids ([4]; 0.1 mol %, 1 mol % and 10 mol % VLC-PUFA in DSPC monolayer, PBS pH 7.4 subphase, 22° C.): shifted the π-A isotherm to higher MMAs
contrast sensitivity (rod function) (WT mice (C57BL/6J)): improved significantly
visual acuity (cone function) (WT mice (C57BL/6J)): improved significantly
